target: T1, CDK2 (cyclin A or E-dependent; cyclin-CDK2 complexes) (Homo sapiens, UniProt P24941); assay: CDK2 in vitro kinase assay (cyclin A or E-dependent), SPA; assay type: biochemical
T1 construct: made in house; host or cells: SF9 insect cells (baculovirus)

| Structure (SMILES) | IC50 |
| --- | --- |
| Cc1nc2c(Br)cnn2cc1CCO | 300 nM |
| OCC[C@@H]1CCCCN1c1ccn2ncc(Br)c2n1 | 30 nM |
| CCc1cn2ncc(Br)c2nc1C | 100 nM |

From US7449488B2, “Pyrazolopyrimidines as protein kinase inhibitors” (priority 2002, dated 2008)
